How the values were obtained:
ADAMTS5 = ADAMTS5 (Homo sapiens (Human), UniProt Q9UNA0); conditions: previous studies; cited from earlier work
MT4-MMP mRNA = MT4-MMP mRNA level (qRT-PCR) in MI rats; type: in vivo, rat; conditions: PPS-treatment
Method: (§1) At day 0 to 3 (median 2) after surgery, infarct size was quantified by echocardiography using the Vevo2100 system (Visualsonics Inc, Canada) and magnetic resonance imaging (MRi) using a 9.4 T/210 mm/ASR horizontal bore magnet (Agilent Technologies, Inc., USA). Initially, echocardiography was performed to select moderate to large infarcts ranging approximately 40 to 50%. Thereafter, infarct sizes were exactly measured by late-enhancement gadolinium MRi analyses (Bohl S., et al. American Journal of Physiology, 2009; 296 (4): H1200-H1208) and stratified into small infarcts (stratum 1: <43%, stratum 2: 43-48%), and large infarcts (stratum 3: 48-53%, stratum 4: >53%). The rats in each MI stratum and sham group were randomized to receive intervention or control treatment. The intervention group was treated with 6 mg/kg of sodium PPS (Interfarm AS, Norway), while the control group received vehicle (0.9% NaCl), both injected subcutaneously every third day starting from post-operative day 8-10.
(§2) The mRNA levels of the ADAMTS versicanases ADAMTS1, -4, -5, -8, and -20 (Shiomi T, et al. Pathology International 2010; 60(7):477-96), versican, aggrecan, syndecan-4, tissue inhibitor metalloprotease (TIMP)-3, and membrane-type (MT)4-MMP, were quantified in rat left ventricle by qRT-PCR, as previously described in Example 1.

[1] = system: acute ischemia/reperfusion model; conditions: administered during reperfusion; cited from earlier work
ADAMTS4 [2] = target: ADAMTS4 (Rattus norvegicus (Rat), UniProt Q9ESP7); assay: Active ADAMTS4 protein level (immunoblotting) in MI rats; type: in vivo; conditions: PPS-treatment
Method: as §1
Fractional protein lysates from myocardium of rats having undergone MI treated with PPS or vehicle were extracted as previously described in Example 1 and Didangelos et al. (Journal of Biological Chemistry 2012 Jun. 1; 287(23):19341-5). Protein concentrations were measured by western blotting as previously described in Example 1. […]

[3] = system: ADAMTS1, -5, -8, versican, aggrecan, HAS-1, HAS-2, TIMP-3 and MT4-MMP mRNA; assay: Myocardial mRNA expression of other ADAMTS, proteoglycans and modulators (qRT-PCR) in aortic banding rats; type: in vivo, rat; conditions: AB-rats, PPS-treatment vs vehicle
Method: (§3) Three days after AB, rats were stratified by the gradient over the stenosis to ensure similar degree of cardiac stress. Two and two stratified rats were randomized to either 6 mg/kg of the sulfated polysaccharide sodium pentosan polysulfate (PPS) (Interfarm AS, Norway) or vehicle (0.9% NaCl) injected subcutaneously every third day. […] Six weeks after AB or sham operation, the rats were examined by echocardiography and postmortem analysis, performed by experienced investigators (IS, JMA) blinded to treatment group.
(§4) In addition, mRNA levels of proteins known to modulate ADAMTS activity or versican function were measured; tissue inhibitor of metalloprotease (TIMP)-3, hyaluronic acid (HA) synthase 1 and 2, and membrane-type (MT)4-MMP, while mRNA levels of ADAMTS1, -4, and versican were quantified in NFB and NCM.
(§5) Total RNA was isolated from the left ventricle in AB rats, neonatal rat cardiomyocytes and fibroblasts (RNeasy mini kit, Qiagen, Valencia, Calif.). […] The results were detected on an ABI PRISM 7900 Sequence Detection System (Applied Biosystems, CA).

ADAMTS4 mRNA = assay: Myocardial ADAMTS4 mRNA expression (qRT-PCR) in aortic banding rats; type: in vivo, rat; conditions: AB-rats treated with PPS, left ventricle, six weeks after AB; normalized to RPL4, relative to vehicle-treated sham; median (interquartile range)
Method: as §3, §4, §5

TIMP-3 mRNA = TIMP-3 mRNA level (qRT-PCR) in MI rats; type: in vivo, rat; conditions: PPS-treatment
Method: as §1, §2

ADAMTS4 [4] = target: ADAMTS4 (Homo sapiens (Human), UniProt O75173); conditions: previous studies; cited from earlier work
Sequence of ADAMTS4 (Homo sapiens (Human), UniProt O75173) (O75173 213-837, species assumed): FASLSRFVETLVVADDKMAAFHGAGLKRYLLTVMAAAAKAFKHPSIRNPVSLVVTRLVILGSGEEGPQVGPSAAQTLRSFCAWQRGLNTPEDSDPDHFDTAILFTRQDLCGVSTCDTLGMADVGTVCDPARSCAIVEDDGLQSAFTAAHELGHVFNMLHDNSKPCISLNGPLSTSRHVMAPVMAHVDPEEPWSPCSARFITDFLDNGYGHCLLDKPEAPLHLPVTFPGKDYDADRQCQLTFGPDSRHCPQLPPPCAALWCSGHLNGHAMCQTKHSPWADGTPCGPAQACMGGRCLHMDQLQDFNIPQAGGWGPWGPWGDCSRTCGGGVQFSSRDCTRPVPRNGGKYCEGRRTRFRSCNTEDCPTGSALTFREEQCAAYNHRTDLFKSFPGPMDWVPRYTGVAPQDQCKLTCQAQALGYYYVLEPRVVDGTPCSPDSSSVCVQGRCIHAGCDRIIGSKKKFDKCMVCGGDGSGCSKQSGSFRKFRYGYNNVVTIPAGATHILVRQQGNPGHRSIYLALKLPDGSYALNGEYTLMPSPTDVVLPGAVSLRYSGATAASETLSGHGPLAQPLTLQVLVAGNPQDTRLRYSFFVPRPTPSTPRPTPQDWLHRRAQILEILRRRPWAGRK

Sequence of ADAMTS5 (Q9UNA0 262-930, species assumed): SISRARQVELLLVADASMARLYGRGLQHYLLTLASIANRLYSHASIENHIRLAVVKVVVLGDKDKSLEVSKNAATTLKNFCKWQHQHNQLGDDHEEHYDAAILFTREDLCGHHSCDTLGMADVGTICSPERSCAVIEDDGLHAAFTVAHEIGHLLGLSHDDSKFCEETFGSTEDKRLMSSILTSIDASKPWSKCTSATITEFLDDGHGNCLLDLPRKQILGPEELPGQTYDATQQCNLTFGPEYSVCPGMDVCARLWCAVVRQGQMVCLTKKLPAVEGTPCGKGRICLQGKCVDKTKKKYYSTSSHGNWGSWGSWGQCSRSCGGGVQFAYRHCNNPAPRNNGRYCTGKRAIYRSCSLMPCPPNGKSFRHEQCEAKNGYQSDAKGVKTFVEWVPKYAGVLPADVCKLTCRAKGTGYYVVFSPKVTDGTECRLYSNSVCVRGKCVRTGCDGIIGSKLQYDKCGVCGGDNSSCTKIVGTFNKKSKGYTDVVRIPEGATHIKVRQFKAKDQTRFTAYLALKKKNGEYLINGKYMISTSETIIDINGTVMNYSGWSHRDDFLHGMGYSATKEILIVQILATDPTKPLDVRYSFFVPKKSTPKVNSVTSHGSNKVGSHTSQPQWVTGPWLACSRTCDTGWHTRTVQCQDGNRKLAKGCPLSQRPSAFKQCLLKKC

active ADAMTS4 protein levels (ADAMTS4 [2]): decreased
Substance: pentosan polysulfate [PPS]
aggrecanase activity of ADAMTS5 (ADAMTS5): inhibits
mRNA levels of MT4-MMP (MT4-MMP mRNA): decreased
infarction size [1]: reduce infarction size
mRNA levels of ADAMTS1, -5, -8, versican, aggrecan, HAS-1, HAS-2, TIMP-3 and MT4-MMP [3]: not affected
ADAMTS4 mRNA level (ADAMTS4 mRNA): 1.29 (1.00-6.45)
TIMP-3 level (TIMP-3 mRNA): did not change
aggrecanase activity of ADAMTS4 (ADAMTS4 [4]): inhibits

Reference: patent US10322143B2, “Inhibitors of ADAMTS4 or ADAMTS5 for use in preventing or treating cardiac remodeling and chronic heart failure” (Universitetet i Oslo, priority 2013, dated 2019)
